For 16 molecules, IC50 and IC (total growth inhibition) results are on record in patent US8975417B2, “Pyrazolopyrrolidine derivatives and their use in the treatment of disease” (Novartis AG, priority 2013, dated 2015).

Read-outs that look alike come from different tables or passages of the source.

One assay has as its target His-Brd4(44-477) (Homo sapiens (Human), UniProt O60885). Nature of the assay: TR-FRET in-vitro binding assay for BRD4. The settings on record: biochemical. The essentials: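 His-tagged BRD2(60-472), BRD3(20-477) or BRD4(44-477), 45 nM in dispensing solution, with 60 nM tetra-acetylated histone H4 peptide (AcK5/8/12/16) in dispensing solution; HEPES pH 7.5, 50 mM NaCl, 0.1% BSA, 30 °C, 35 min. Eu-anti-His6 antibody plus streptavidin-APC added for TR-FRET read-out; 8-point compound dilutions.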

The subject of the next assay is MV-4-11 cells. Kind of assay: Cell growth inhibition assay (CellTiter-Glo), MV-4-11. Format: cell-based. The settings on record: Homo sapiens, MV4-11, read-out: MV-4-11 TGI. The essentials: (§1)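 Compounds tested as 3-fold dilution series starting at 10 μM (DMSO 0.1% final); viability read by cellular ATP (CTG luminescence) at 37° C. Signal corrected for no-cell background and a day-0 plate, scaled −100% to 100%; four-parameter fitting gives IC50 and TGI.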

The test system of the next assay is THP-1 cells. Kind of assay: Cell growth inhibition assay (CellTiter-Glo), THP-1. Format: cell-based. The settings on record: Homo sapiens, read-out: THP-1 TGI. The essentials:
as §1

Another assay has as its system K-562 cells. Nature of the assay: Cell growth inhibition assay (CellTiter-Glo), K-562. It counts as cell-based, human. The method, boiled down:
as §1

Assay [1] deals with His-CREBBP (1081-1197) bromodomain (Homo sapiens (Human), UniProt Q92793). Nature of the assay: AlphaScreen in-vitro binding assay for CREBBP. The settings on record: biochemical. The method, boiled down:
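Ni-chelate acceptor and streptavidin donor beads (45 µg/mL each, in 50 mM HEPES pH 7.5, 150 mM NaCl, 0.02% BSA) were then added for 60 min at room temperature. IC50 came from 8-point non-linear regression.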

The mark [2] stands for this setting: Homo sapiens, K562, read-out: K-562 TGI.

Chain of His-CREBBP (1081-1197) bromodomain (Q92793 1081-1197): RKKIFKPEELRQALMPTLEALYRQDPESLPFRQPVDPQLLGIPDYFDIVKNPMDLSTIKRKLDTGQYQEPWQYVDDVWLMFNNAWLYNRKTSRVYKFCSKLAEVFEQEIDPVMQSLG

As to `Cc1nn(C(=O)N(C)C)c2c1[C@@H](c1ccc(Cl)cc1)N(c1cc(C)c3nnc(C)n3c1)C2=O` [Example 149, (R)-4-(4-chlorophenyl)-5-(3,8-dimethyl-[1,2,4]triazolo[4,3-a]pyridin-6-yl)-N,N,3-trimethyl-6-oxo-5,6-dihydropyrrolo[3,4-c]pyrazole-1(4H)-carboxamide], the IC50 on His-Brd4(44-477) was determined as 30 nM; in assay [1], 6.9 µM. For the same molecule, the IC (total growth inhibition) with MV-4-11 cells was 0.0505 µM; in the assay with THP-1 cells, 0.138 µM; in the assay on K-562 cells (setting [2]), above 10 µM.

As to `COc1ncc(-n2nc(C)c3c2C(=O)N(c2cc(C)c(=O)n(C)c2)C3c2ccc(Cl)cc2)c(OC)n1` (racemic) [Example 52, 4-(4-chlorophenyl)-1-(2,4-dimethoxypyrimidin-5-yl)-5-(1,5-dimethyl-6-oxo-1,6-dihydropyridin-3-yl)-3-methyl-4,5-dihydropyrrolo[3,4-c]pyrazol-6(1H)-one], the IC50 at His-Brd4(44-477) is 87 nM; in assay [1], 5.7 µM. In the assay with K-562 cells (read-out: K-562 TGI), the IC (total growth inhibition) is recorded as above 10 µM.

For the molecule `Cc1nn(C2CC2)c2c1C(c1cccc(C(F)(F)F)c1)N(c1cc(C)c(=O)n(C)c1)C2=O` (stereo not shown) [Example 96, 1-cyclopropyl-5-(1,5-dimethyl-6-oxo-1,6-dihydropyridin-3-yl)-3-methyl-4-(3-(trifluoromethyl)phenyl)-4,5-dihydropyrrolo[3,4-c]pyrazol-6(1H)-one], the half-maximal inhibitory concentration (IC50) at His-Brd4(44-477) turned out to be 780 nM; in assay [1], 18 µM. Further, the IC (total growth inhibition) with MV-4-11 cells is 1.24 µM; in the assay with THP-1 cells it was 2.55 µM; in the assay on K-562 cells (setting [2]), above 10 µM.

Regarding `CCc1nn(CCO)c2c1C(c1ccc(Cl)cc1)N(c1cc(C)c(=O)n(C)c1)C2=O` (stereo not shown) [Example 78, 4-(4-chlorophenyl)-5-(1,5-dimethyl-6-oxo-1,6-dihydropyridin-3-yl)-3-ethyl-1-(2-hydroxyethyl)-4,5-dihydropyrrolo[3,4-c]pyrazol-6(1H)-one], the IC50 turned out to be 63 nM on His-Brd4(44-477) and 3.1 µM in assay [1]. Also, the IC (total growth inhibition) in the assay with MV-4-11 cells is 0.0855 µM; in the assay on THP-1 cells, 0.223 µM; in the assay on K-562 cells (setting [2]), above 10 µM.

As to `Cc1nn(C(C)C)c2c1[C@H](c1ccc(Cl)cc1)N(c1cc(C)c(=O)n(C)c1)C2=O` [Example 103, (S)-4-(4-chlorophenyl)-5-(1,5-dimethyl-6-oxo-1,6-dihydropyridin-3-yl)-1-isopropyl-3-methyl-4,5-dihydropyrrolo[3,4-c]pyrazol-6(1H)-one], the IC50 on His-Brd4(44-477) was 11000 nM; in assay [1] it was above 37 µM. Besides, the figures for the IC (total growth inhibition) in the assay on MV-4-11 cells, with THP-1 cells and with K-562 cells (setting [2]) were 6.54 µM, above 10 µM and above 10 µM, respectively.

Take `Cc1nn(C2COC2)c2c1C(c1ccc(Cl)cc1)N(c1cc(C)c3nnc(C)n3c1)C2=O` (stereo not shown) [Example 137, 4-(4-chlorophenyl)-5-(3,8-dimethyl-[1,2,4]triazolo[4,3-a]pyridin-6-yl)-3-methyl-1-(oxetan-3-yl)-4,5-dihydropyrrolo[3,4-c]pyrazol-6(1H)-one]: the half-maximal inhibitory concentration (IC50) on His-Brd4(44-477) was 80 nM; in assay [1] it was above 37 µM. In addition, the IC (total growth inhibition) with MV-4-11 cells is 0.0421 µM; in the assay with THP-1 cells it was 0.116 µM; in the assay with K-562 cells (setting [2]) it was above 10 µM.

Turning to `Cc1nn(-c2ccnn2C)c2c1[C@@H](c1ccc(Cl)cc1)N(c1cc(C)c(=O)n(C)c1)C2=O` [Example 120, (R)-4-(4-chlorophenyl)-5-(1,5-dimethyl-6-oxo-1,6-dihydropyridin-3-yl)-3-methyl-1-(1-methyl-1H-pyrazol-5-yl)-4,5-dihydropyrrolo[3,4-c]pyrazol-6(1H)-one], the IC50 on His-Brd4(44-477) amounted to 55 nM; in assay [1] it was 4.3 µM. The IC (total growth inhibition) in the assay on MV-4-11 cells was 0.106 µM; in the assay with THP-1 cells, 0.165 µM; with K-562 cells (setting [2]), above 10 µM.

`Cc1ncccc1-n1nc2c(c1C)C(c1ccc(Cl)cc1)N(c1cc(C)c(=O)n(C)c1)C2=O` (stereo not shown) [Example 81, 4-(4-chlorophenyl)-5-(1,5-dimethyl-6-oxo-1,6-dihydropyridin-3-yl)-3-methyl-2-(2-methylpyridin-3-yl)-4,5-dihydropyrrolo[3,4-c]pyrazol-6(2H)-one]: the IC50 was determined as 110 nM on His-Brd4(44-477) and 0.92 µM in assay [1]. Besides, the IC (total growth inhibition) with MV-4-11 cells was 0.13 µM; in the assay on THP-1 cells, 0.422 µM; in the assay on K-562 cells (setting [2]), above 10 µM.

For `COCc1nn(C2CC2)c2c1C(c1ccc(Cl)cc1)N(c1cc(C)c3nnc(C)n3c1)C2=O` (stereo not shown) [Example 130, 4-(4-chlorophenyl)-1-cyclopropyl-5-(3,8-dimethyl-[1,2,4]triazolo[4,3-a]pyridin-6-yl)-3-(methoxymethyl)-4,5-dihydropyrrolo[3,4-c]pyrazol-6(1H)-one], the concentration for half-maximal inhibition (IC50) on His-Brd4(44-477) stood at 42 nM; in assay [1] it was 19 µM. The results for the IC (total growth inhibition) with MV-4-11 cells, with THP-1 cells and in the assay with K-562 cells (setting [2]) were 0.0267 µM, 0.0813 µM and above 10 µM, respectively.

`Cc1nn(-c2ccnn2C)c2c1C(c1ccc(Cl)cc1)N(c1cc(C)c(=O)n(C)c1)C2=O` (racemic) [Example 74, 4-(4-chlorophenyl)-5-(1,5-dimethyl-6-oxo-1,6-dihydropyridin-3-yl)-3-methyl-1-(1-methyl-1H-pyrazol-5-yl)-4,5-dihydropyrrolo[3,4-c]pyrazol-6(1H)-one]: the IC50 at His-Brd4(44-477) was 67 nM; in assay [1], 6.4 µM. Also, in the assay with K-562 cells (read-out: K-562 TGI), the IC (total growth inhibition) is recorded as above 10 µM.

For `Cc1nn(C2CC2)c2c1C(c1ccc(Cl)cc1)N(c1cc(N(C)C(=O)OC(C)(C)C)c3nnc(C)n3n1)C2=O` (stereo not shown) [Example 112, tert-butyl (6-(4-(4-chlorophenyl)-1-cyclopropyl-3-methyl-6-oxopyrrolo[3,4-c]pyrazol-5(1H,4H,6H)-yl)-3-methyl-[1,2,4]triazolo[4,3-b]pyridazin-8-yl)(methyl)carbamate], the IC50 at His-Brd4(44-477) was above 37000 nM; in assay [1], above 37 µM. Also, the IC (total growth inhibition) in the assay on MV-4-11 cells is 1.21 µM; with THP-1 cells, 3.17 µM; in the assay on K-562 cells (setting [2]) it was above 10 µM.

With `Cc1nn(C2CNC2)c2c1C(c1ccc(Cl)cc1)N(c1cc(C)c3nnc(C)n3c1)C2=O` (stereo not shown) [Example 151, 1-(azetidin-3-yl)-4-(4-chlorophenyl)-5-(3,8-dimethyl-[1,2,4]triazolo[4,3-a]pyridin-6-yl)-3-methyl-4,5-dihydropyrrolo[3,4-c]pyrazol-6(1H)-one], the IC50 on His-Brd4(44-477) is 130 nM; in assay [1], above 37 µM. Further, the IC (total growth inhibition) in the assay with MV-4-11 cells was 0.368 µM; in the assay on THP-1 cells, 1.33 µM; in the assay on K-562 cells (setting [2]), above 10 µM.

Regarding `Cc1nn(C2COC2)c2c1C(c1ccc(Cl)cc1)N(c1cc(C)c(=O)n(C)c1)C2=O` (stereo not shown) [Example 135, 4-(4-chlorophenyl)-5-(1,5-dimethyl-6-oxo-1,6-dihydropyridin-3-yl)-3-methyl-1-(oxetan-3-yl)-4,5-dihydropyrrolo[3,4-c]pyrazol-6(1H)-one], the figures for the half-inhibitory concentration (IC50) (at His-Brd4(44-477); in assay [1]) were 140 nM and above 37 µM, respectively. Also, the IC (total growth inhibition) with MV-4-11 cells was 0.126 µM; in the assay with THP-1 cells, 0.2 µM; in the assay with K-562 cells (setting [2]) it was above 10 µM.

On to `COc1ncccc1-n1nc(C)c2c1C(=O)N(c1cc(C)c3nnc(C)n3n1)C2c1ccc(Cl)cc1` (stereo not shown) [Example 111, 4-(4-chlorophenyl)-5-(3,8-dimethyl-[1,2,4]triazolo[4,3-b]pyridazin-6-yl)-1-(2-methoxypyridin-3-yl)-3-methyl-4,5-dihydropyrrolo[3,4-c]pyrazol-6(1H)-one], for which the IC50 turned out to be 17 nM at His-Brd4(44-477) and 29.7 µM in assay [1]. Further, the IC (total growth inhibition) in the assay with MV-4-11 cells is 0.0306 µM; with THP-1 cells, 0.0484 µM; in the assay with K-562 cells (setting [2]), above 10 µM.

In the case of `Cc1nn(-c2cncn2C)c2c1C(c1ccc(Cl)cc1)N(c1cc(C)c(=O)n(C)c1)C2=O` (stereo not shown) [Example 83, 4-(4-chlorophenyl)-5-(1,5-dimethyl-6-oxo-1,6-dihydropyridin-3-yl)-3-methyl-1-(1-methyl-1H-imidazol-5-yl)-4,5-dihydropyrrolo[3,4-c]pyrazol-6(1H)-one], the concentration for half-maximal inhibition (IC50) is 91 nM on His-Brd4(44-477) and 6.1 µM in assay [1]. Also, the results for the IC (total growth inhibition) with MV-4-11 cells, in the assay on THP-1 cells and in the assay on K-562 cells (setting [2]) were 0.145 µM, 0.396 µM and above 10 µM, respectively.

With `CC(=O)N1CC(n2nc(C)c3c2C(=O)N(c2cc(C)c4nnc(C)n4c2)C3c2ccc(Cl)cc2)C1` (stereo not shown) [Example 154, 1-(1-acetylazetidin-3-yl)-4-(4-chlorophenyl)-5-(3,8-dimethyl-[1,2,4]triazolo[4,3-a]pyridin-6-yl)-3-methyl-4,5-dihydropyrrolo[3,4-c]pyrazol-6(1H)-one], the half-inhibitory concentration (IC50) on His-Brd4(44-477) was 91 nM; in assay [1] it was above 37 µM. Besides, the IC (total growth inhibition) with MV-4-11 cells is 0.112 µM; in the assay with THP-1 cells it was 0.538 µM; with K-562 cells (setting [2]), above 10 µM.
